# Test results published in patent US8399520B2, “Selective estrogen receptor modulator” (Eisai R&D Management Co., Ltd., priority 2002, dated 2013).
# Legend:
# [1] = test system: MCF-7 breast cancer cells; assay: MCF-7 growth analysis (estrogen agonist and antagonist activity, MTT assay); assay type: cell-based; conditions: Homo sapiens; for activity at 0.1 µM: MCF7, MCF-7, 72 hours, growth rate of diluent control = 100, of 17β-estradiol (1 nM) = 200, read-out: Agonist activity: growth rate (100 nM test compound); for IC50: MCF7, MCF-7 growth with 17β-estradiol (10 pM) present simultaneously, 72 hours
# Description: Test Example 2 determines the estrogen agonist and antagonist activities of the compound according to the present invention in reproduction system cells. […] The present test was carried out according to the following procedures. MCF-7 breast cancer cells were cultured in the preservation medium until the compound evaluation. The preservation medium is the MEM (minimum essential medium, phenol red-free, Gibco, ##51200-038) supplemented with 10% (volume/volume) fetal bovine serum (FBS), 2 mM L-glutamine, 1 mM sodium pyruvate, non-essential amino acids (0.1 mM, Gibco, #15240-062), and antibiotic-antimycotic solution ( 1/50 of culture medium volume, Gibco). Five days prior to analysis, the preservation medium was exchanged with analytical medium to which 10% charcoal-stripped fetal bovine serum (charcoal-FBS) was added instead of 10% FBS, so as to deprive the MCF-7 cells of endogenous steroids. Twenty-four hours after exchange to the analytical medium, the MCF-7 cells were removed from the preservation flask using cell isolation medium (trypsin-EDTA solution, Gibco). The cells were washed with analytical medium once, and cell suspension at 50,000 cell/ml was prepared using the analytical medium. The prepared cell suspension was added to a 96 well flat-bottomed microculture at […] (5,000 cells) per well, the cells were cultured in a 5% CO2 incubator for 24 hours at 37° C., to equilibrate the cells after cell transfer. […] The cells were further cultured in the 5% CO2 incubator for 72 hours at 37° C. After culturing, the cell growth was examined by the MTT assay. MTT assay was carried out as the following protocols. MTT solution at 8 mg/ml (MTT dissolved in phosphate saline water buffer) was added to the microculture at 10 μl/well, and the cells were cultured in the 5% CO2 incubator for 30 minutes at 37° C. Thereafter, resulting from the reduction of MTT by the cells, formazan crystals were dissolved by adding a dissolution buffer (400 g/l of an aqueous solution of SDS (50%) and dimethylformamide (50%)) to the microculture at 100 μl/well, and incubated the microculture for more than 4 hours in the dark. For each well of the microculture, the optical density at 590 nm due to the dissolved formazan crystals was measured.
# [2] = biological target: T1, estrogen receptor derived from bovine uterus (Bos taurus, UniProt P49884); assay: In vitro estrogen receptor binding assay; conditions: read-out: Estrogen receptor binding affinity: Ki
# T1 construct: estrogen receptor derived from bovine uterus was diluted with the assay buffer solution so that 10 to 20 μg total protein was present; from tissue; host or cells: bovine uterus
# T1 sequence (P49884 1-596): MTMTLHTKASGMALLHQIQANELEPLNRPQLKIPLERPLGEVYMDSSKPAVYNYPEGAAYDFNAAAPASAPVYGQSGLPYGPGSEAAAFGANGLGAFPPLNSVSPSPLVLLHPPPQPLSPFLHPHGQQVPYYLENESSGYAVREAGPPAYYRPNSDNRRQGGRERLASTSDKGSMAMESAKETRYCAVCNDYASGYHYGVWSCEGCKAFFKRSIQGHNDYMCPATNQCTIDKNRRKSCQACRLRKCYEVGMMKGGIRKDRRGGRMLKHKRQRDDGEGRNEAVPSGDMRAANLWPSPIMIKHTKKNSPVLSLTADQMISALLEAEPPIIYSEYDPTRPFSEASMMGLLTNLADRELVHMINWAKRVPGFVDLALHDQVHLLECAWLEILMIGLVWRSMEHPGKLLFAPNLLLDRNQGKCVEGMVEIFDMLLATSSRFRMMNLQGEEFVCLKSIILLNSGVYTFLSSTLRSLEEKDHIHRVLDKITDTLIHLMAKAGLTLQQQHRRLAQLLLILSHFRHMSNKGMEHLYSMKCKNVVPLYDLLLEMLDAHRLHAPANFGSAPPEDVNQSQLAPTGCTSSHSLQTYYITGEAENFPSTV
# Description: The binding affinity of the compound according to the present invention to estrogen receptor was measured using an in vitro estrogen receptor binding assay. The binding affinity measures the ability of the compound according to the present invention to remove [^3H]-estradiol from estrogen receptor derived from bovine uterus. The following materials were used in this assay: (1) the assay buffer solution was 20 mM Tris/HCl (pH 7.5) containing 1 mM dithiothreitol (DTT), 1 mM EDTA and 10% glycerol; (2) radioactive ligand was [^3H]-estradiol purchased from Amersham Life Science; (3) the cold ligand was diethylstilbestrol purchased from sigma (Sigma); and (4) the estrogen receptor was derived from bovine uterus. The compound to be tested was prepared as a 10% DMSO solution. [^3H]-estradiol was dissolved in the assay buffer solution so as to obtain a final concentration of 1 nM. […] Each plate contains total binding, non-specific binding and the binding which were not inhibited by various concentrations of the compound. The plate was incubated for 1 hour at room temperature. […] These mixtures were centrifuged, and the supernatant thereof was evaluated for its radioactivity using a liquid scintillation counter. Specific binding was calculated by subtracting non-specific binding dpm (counts remaining in the supernatant obtained by centrifugal separation of a reaction mixture containing estrogen receptor derived from bovine uterus, radioactive ligand and excess cold ligand) from the total binding dpm (counts remaining in the supernatant obtained by centrifugal separation of a reaction mixture containing estrogen receptor derived from bovine uterus and radioactive ligand only). The effectiveness of the compound was evaluated by Ki. […] C is the concentration of [^3H]-estradiol in the reaction mixture, and Kd is the [^3H]-estradiol dissociation constant. The Kd was determined by Scatchard analysis. That is to say, various concentrations of [^3H]-estradiol were used to measure the concentration of specifically bound [^3H]-estradiol, which served as the horizontal axis, the value which was obtained by dividing the concentration of specifically bound [^3H]-estradiol by the concentration [^3H]-estradiol not bound to the receptor served as the vertical axis to produce a plot, and the negative value of the inverse of the slope of the resulting straight line was used as Kd.
# ovariectomized rats [3] = assay: Ovariectomized rats: uterus wet weight; assay type: in vivo, rat
# Description: (§1) Ten weeks old Female Fischer rats (F344/N, Japan SLC, Shizuoka, Japan) were used. Rats were grouped to eliminate the effect of body weight between each group and housed with free access to food and water. Animals were anesthetized with Nembutal (Abbott Laboratories, Chicago, Ill.) and the ovaries were removed. In sham-operated group, ovaries were only touched with tweezers. Administration of compounds was started one day after the operation.
# (§2) Estradiol (Sigma-Aldrich, St. Louis, Mo.) was dissolved in DMSO to 150 mg/mL then diluted with sesame oil to 0.15 mg/mL. The compounds in Examples 736 and 814, and Raloxifene were suspended in sesame oil to 5, 5 and 1.5 mg/mL, respectively. Samples were divided into aliquots for daily administration and preserved at −18° C. until use.
# (§3) The samples were orally administered at 2 mL/kg. Administration was carried out once a day from Monday to Friday for 8 weeks.
# After animals were sacrificed by decapitation, uterus was removed and adipose tissue and vagina was separated from uterus prior to uterus weight measurement.
# ovariectomized rats [4] = assay: Ovariectomized rats: bone density of femur and fifth lumbar vertebrae; assay type: in vivo, rat; conditions: OVX rats, 8 weeks
# Description: as §1, §2, §3
# After animals were sacrificed by decapitation, left femur and the fifth lumbar vertebrae were removed. The bone density was measured by using QDR-1000/W (Ho logic Inc., Bedford, Mass.).
# ovariectomized rats [5] = assay: Bone resorption in ovariectomized rats: deoxypyridinoline in urine; assay type: in vivo, rat; conditions: OVX rats, urine
# Description: as §1, §2, §3
# Urine was gathered overnight (17 hours) using the metabolic cage under fasting. The amount of urinary deoxypyridinoline was measured with ELISA kit, Osteorincs-DPD (Sumitomo Seiyaku Biomedical Co., Ltd., Osaka, Japan) and evaluated as total amount produced in 17 hours or as the amount per 1 mg of creatinine.
# [6] = 0.3 mg/kg orally once a day Monday to Friday
# [7] = 3 mg/kg orally once a day Monday to Friday
Structure (SMILES),activity at 0.1 µM [1] [%],IC50 [1] [nM],Ki [2] [nM],also measured
"CCN(Cc1ccc(OCCN2CCCCCC2)cc1)c1cc(O)ccc1[C@@H]1CCc2cc(O)ccc2C1 [190 (R), (R)-6-{2-{[4-(2-azepan-1-ylethoxy)benzyl]ethylamino}-4-hydroxyphenyl}-5,6,7,8-tetrahydronaphthalen-2-ol]",124,7.95,1,–
"CC/C(=C(\c1ccccc1)c1ccc(OCCN(C)C)cc1)c1ccccc1 [Comparative Example, Tamoxifen, reference compound]",133,–,–,–
"C[C@]12CC[C@@H]3c4ccc(O)cc4CC[C@H]3[C@@H]1CC[C@@H]2O [Estradiol, reference compound]",–,–,–,"Uterus (wet weight) (ovariectomized rats [3]; OVX rats, 0.3 mg/kg orally, 8 weeks): 0.213 ± 0.013 g; Bone Mineral Density, Distal femur (ovariectomized rats [4]; 0.3 mg/kg orally): 0.250 ± 0.001 g/cm^2; Bone Mineral Density, Lumber 5 (ovariectomized rats [4]; 0.3 mg/kg orally): 0.150 ± 0.005 g/cm^2; Bone Mineral Density, Whole femur (ovariectomized rats [4]; 0.3 mg/kg orally): 0.237 ± 0.001 g/cm^2; Deoxypyridinoline, 5 weeks (ovariectomized rats [5]; [6]): 12.06 ± 1.60 nM/mg/dl; Deoxypyridinoline, 8 weeks (ovariectomized rats [5]; [6]): 11.61 ± 2.10 nM/mg/dl"
"CCN(Cc1ccc(OCCN2CCCCCC2)nc1)c1cc(OC)ccc1[C@@H]1CCc2cc(O)ccc2C1 [Example 228, (R)-6-{2-{[6-(2-Azepan-1-ylethoxy)pyridin-3-ylmethyl]ethylamino}-4-methoxyphenyl}-5,6,7,8-tetrahydronaphthalen-2-ol]",101,2.62,2.3,–
"CCN(Cc1ccc(CCN2CCCCCC2)cn1)c1cc(OC)c(OC)cc1C1CCc2cc(O)ccc2C1 (stereo not shown) [Example 255, 6-{2-{[5-(2-Azepan-1-ylethyl)pyridin-2-ylmethyl]ethylamino}-4,5-dimethoxyphenyl}-5,6,7,8-tetrahydronaphthalen-2-ol]",106,1.4,1.4,–
"CCN(Cc1ccc(CCN2CCCCCC2)s1)c1cc(OC)c(OC)cc1[C@@H]1CCc2cc(O)ccc2C1 [Example 259, (R)-6-{2-{[5-(2-Azepan-1-ylethyl)thiophen-2-ylmethyl]ethylamino}-4,5-dimethoxyphenyl}-5,6,7,8-tetrahydronaphthalen-2-ol]",103,4.12,2.8,–
"CCNCCOc1ccc(CN(CC)c2cc(O)ccc2C2CCc3cc(O)ccc3C2)cc1 (stereo not shown) [Example 379, 6-{2-{Ethyl[4-(2-ethylaminoethoxy)benzyl]amino}-4-hydroxyphenyl}-5,6,7,8-tetrahydronaphthalen-2-ol]",–,–,1.1,–
"CCOCCN(C)CCOc1ccc(CN(CC)c2cc(OC)ccc2[C@@H]2CCc3cc(O)ccc3C2)cc1 [Example 618, (R)-6-{2-{{4-{2-[(2-Ethoxyethyl)methylamino]ethoxy}benzyl}ethylamino}-4-methoxyphenyl}-5,6,7,8-tetrahydronaphthalen-2-ol]",96,2.9,2.9,–
"CCN(Cc1ccc(CCN(C)C)cc1)c1cc(OC)c(OC)cc1[C@@H]1CCc2cc(O)ccc2C1 [Example 741, (R)-6-{2-{[4-(2-Dimethylaminoethyl)benzyl]ethylamino}-4,5-dimethoxyphenyl}-5,6,7,8-tetrahydronaphthalen-2-ol]",98,2.06,0.2,–
"CC(C)(Cc1ccc(O)cc1Oc1ccc(OCCN2CCCCC2)cc1)c1ccc(O)cc1 [Example 776, 4-[2-(4-Hydroxyphenyl)-2-methylpropyl]-3-[4-(2-piperidin-1-ylethoxy)phenoxy]phenol]",–,–,6.3,–
"CCN(Cc1ccc(OCCN2CCCCC2)cc1)c1cc(O)ccc1CC1CCc2cc(O)ccc2C1 (stereo not shown) [Example 791, 6-{2-{Ethyl[4-(2-piperidin-1-ylethoxy)benzyl]amino}-4-hydroxybenzyl}-5,6,7,8-tetrahydronaphthalen-2-ol]",–,–,9.8,–
"O=C(c1ccc(OCCN2CCCCC2)cc1)c1c(-c2ccc(O)cc2)sc2cc(O)ccc12 [Raloxifene, 6-hydroxy-2-(4-hydroxyphenyl)-3-[4-(2-piperidinoethoxy)benzoyl]benz[b]thiophene, reference compound]",–,–,–,"Effect on uterus wet weight (in words) (ovariectomized rats [3]; rat, in vivo): slightly increased uterus wet weight to the same level; Bone Mineral Density, Distal femur (ovariectomized rats [4]; 3 mg/kg orally): 0.254 ± 0.002 g/cm^2; Bone Mineral Density, Lumber 5 (ovariectomized rats [4]; 3 mg/kg orally): 0.160 ± 0.003 g/cm^2; Bone Mineral Density, Whole femur (ovariectomized rats [4]; 3 mg/kg orally): 0.239 ± 0.002 g/cm^2; Deoxypyridinoline, 5 weeks (ovariectomized rats [5]; [7]): 8.83 ± 0.41 nM/mg/dl; Deoxypyridinoline, 8 weeks (ovariectomized rats [5]; [7]): 10.87 ± 1.16 nM/mg/dl"
